This is an account of results in patent US10399988B2, “4-aminopyrazolo[3,4-d]pyrimidinylazabicyclo derivatives and pharmaceutical composition comprising the same” (Daewoong Pharmaceutical Co., Ltd., priority 2016, dated 2019).

One assay concerns the target T1, ITK (Homo sapiens, UniProt Q08881).
T1 construct: purchased Promega Corporation
T1 sequence (Q08881 1-620): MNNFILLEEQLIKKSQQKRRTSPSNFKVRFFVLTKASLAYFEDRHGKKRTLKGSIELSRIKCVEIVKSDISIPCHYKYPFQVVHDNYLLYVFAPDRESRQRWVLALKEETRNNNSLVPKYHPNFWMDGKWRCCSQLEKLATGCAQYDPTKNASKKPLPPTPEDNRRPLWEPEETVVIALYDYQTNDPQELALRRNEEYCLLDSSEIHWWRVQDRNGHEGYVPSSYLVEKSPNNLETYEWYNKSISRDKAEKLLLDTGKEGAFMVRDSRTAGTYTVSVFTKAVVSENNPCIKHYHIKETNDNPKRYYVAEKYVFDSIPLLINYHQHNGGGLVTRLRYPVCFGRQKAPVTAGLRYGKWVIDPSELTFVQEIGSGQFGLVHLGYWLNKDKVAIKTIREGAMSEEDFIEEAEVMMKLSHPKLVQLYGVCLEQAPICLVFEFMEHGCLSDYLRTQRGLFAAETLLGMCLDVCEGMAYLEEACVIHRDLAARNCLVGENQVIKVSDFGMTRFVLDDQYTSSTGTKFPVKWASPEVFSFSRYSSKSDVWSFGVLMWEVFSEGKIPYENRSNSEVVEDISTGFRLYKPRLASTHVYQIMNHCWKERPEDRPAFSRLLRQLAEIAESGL
Description: Inhibitory activity against ITK (ADP-Glo + ITK Kinase enzyme system kit); selectivity BTK vs. ITK. The format is biochemical. A general note: ADP-Glo first removes unused ATP, then detects ADP through luciferase.

The next assay deals with BTK (Homo sapiens, UniProt Q06187). Description: Inhibitory activity against BTK (ADP-Glo + BTK Kinase enzyme system kit).

Molecules are shown by their SMILES.

Sequence of BTK (Q06187 whole entry): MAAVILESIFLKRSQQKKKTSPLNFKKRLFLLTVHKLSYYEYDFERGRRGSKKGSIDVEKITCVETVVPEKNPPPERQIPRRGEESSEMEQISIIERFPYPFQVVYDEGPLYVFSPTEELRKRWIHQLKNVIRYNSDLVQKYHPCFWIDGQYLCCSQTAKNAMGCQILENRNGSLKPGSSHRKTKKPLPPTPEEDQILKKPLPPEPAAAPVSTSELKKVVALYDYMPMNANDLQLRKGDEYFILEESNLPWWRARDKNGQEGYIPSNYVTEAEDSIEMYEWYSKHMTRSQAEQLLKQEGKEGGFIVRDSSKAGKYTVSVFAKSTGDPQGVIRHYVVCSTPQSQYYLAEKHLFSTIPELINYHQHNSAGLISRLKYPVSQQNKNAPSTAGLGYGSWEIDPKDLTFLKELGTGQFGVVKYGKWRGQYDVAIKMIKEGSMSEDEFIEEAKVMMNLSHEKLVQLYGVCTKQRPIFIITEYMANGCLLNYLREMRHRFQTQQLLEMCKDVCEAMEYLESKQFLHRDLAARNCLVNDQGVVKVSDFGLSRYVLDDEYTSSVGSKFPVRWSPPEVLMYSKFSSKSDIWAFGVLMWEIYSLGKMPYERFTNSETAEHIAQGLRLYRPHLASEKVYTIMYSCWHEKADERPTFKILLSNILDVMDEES

As usually defined, the IC50 is the point on the concentration scale where inhibition reaches its midpoint. For `C=CC(=O)N1C[C@@H]2C[C@@H]1[C@@H](n1nc(-c3ccc(C(=O)Nc4ccccn4)cc3F)c3c(N)ncnc31)C2` [Ex. 85, 4-(1-((1R,4R,6S)-2-acryloyl-2-azabicyclo[2.2.1]heptan-6-yl)-4-amino-1H-pyrazolo[3,4-d]pyrimidin-3-yl)-3-fluoro-N-(pyridin-2-yl)benzamide], the IC50 on ITK (ITK enzyme 0.4 ng/uL, ATP 25 uM, luminescence, duplicate) was determined as 60.6 nM; on BTK, 1.6 nM. In addition, the “Selectivity (based on IC50)” value at ITK (selectivity for the inhibitory activity of BTK vs. ITK, Equation 1) was determined as 37.9.
